We go through 15 compounds from article PMC9952520, “Anti-Biofilm Effects of Rationally Designed Peptides against Planktonic Cells and Pre-Formed Biofilm of Pseudomonas aeruginosa” (Antibiotics, 2023).

Ends that are not written are not given here.

The test system of experiment [1] is Drug-Resistant P. aeruginosa (DRPa) 3904. Nature of the experiment: microbe, parasite or virus in culture. The class given is cell-based, Pseudomonas aeruginosa. The settings on record: microdilution, 10 mM sodium phosphate pH 7.2 + 20% MH broth, 24 h at 37 °C, OD600, triplicate. As for the experimental part:
(§1) Pseudomonas aeruginosa ATCC 27853 (drug-sensitive strain) was obtained from the American Type Culture Collection and drug-resistant P. aeruginosa (DRPa)-3904, 4830, 4891, 4007, and 5018 were isolated from patients with otitis media in a hospital. DRPa strains were obtained from GC Lab (Yongin-Si, Gyeonggi-do, Korea) for identification and antibiotic susceptibility testing. All strains were grown in a Mueller–Hinton (MH) broth containing 0.5% NaCl under an aerobic condition at 37 °C.
(§2) Pregrown bacteria were suspended in 10 mM sodium phosphate (SP, pH 7.2) supplemented with 20% MH broth. Evaluation of antibacterial effects in variable ionic strengths was performed with the following buffers: 10 mM HEPES, 10 mM NaCl, pH 7.4 + 10% MH (buffer I), 10 mM HEPES, 150 mM NaCl, pH 7.4 + 10% MH (buffer II), 10 mM HEPES, 5 mM MgCl2, pH 7.4 + 10% MH (buffer III), and 10 mM HEPES, 150 mM NaCl, 5 mM MgCl2, pH 7.4 + 10% MH (buffer IV). Fifty µL of the cell suspension (1 × 10^6 colony forming unit (CFU)/mL) was added to fifty µL of two-fold serially diluted peptide solutions and antibiotics (0.125–256 µM), followed by incubation for 24 h at 37 °C. The positive growth control was bacterial suspension without peptides and antibiotics and the negative control was only medium. MICs were evaluated by measuring the turbidity of cell solutions at OD600 and were defined as the lowest concentration of peptide or antibiotics that inhibited visible bacterial growth. The assays were performed in triplicate.
Background: Dilution methods test growth across graded concentrations, often in twofold steps.

Experiment [2] relates to Drug-Resistant P. aeruginosa (DRPa) 4830. Nature of the experiment: microbe, parasite or virus in culture. The class given is cell-based, Pseudomonas aeruginosa. The settings on record: microdilution, 10 mM sodium phosphate pH 7.2 + 20% MH broth, 24 h at 37 °C, OD600, triplicate. Here is the method:
as §1, §2

The subject of experiment [3] is Drug-Sensitive P. aeruginosa (ATCC 27853). Nature of the experiment: microbe, parasite or virus in culture. The class given is cell-based, Pseudomonas aeruginosa. The settings on record: microdilution, 10 mM sodium phosphate pH 7.2 + 20% MH broth, 24 h at 37 °C, turbidity OD600, triplicate. As for the experimental part: as §1, §2
In experiment [4] the test system is Drug-Resistant P. aeruginosa (DRPa) 5018. Nature of the experiment: microbe, parasite or virus in culture. The settings on record: microdilution, 10 mM sodium phosphate pH 7.2 + 20% MH broth, 24 h at 37 °C, OD600, triplicate. The class given is cell-based, Pseudomonas aeruginosa. Here is the method:
as §1, §2

The test system of experiment [5] is Drug-Resistant P. aeruginosa (DRPa) 4891. Nature of the experiment: microbe, parasite or virus in culture. The settings on record: microdilution, 10 mM sodium phosphate pH 7.2 + 20% MH broth, 24 h at 37 °C, OD600, triplicate. The class given is cell-based, Pseudomonas aeruginosa. Here is the method: as §1, §2
For experiment [6], the system named is Drug-Resistant P. aeruginosa (DRPa) 4007. As to the kind of experiment: microbe, parasite or virus in culture. The experiment is classed as cell-based, Pseudomonas aeruginosa. The settings on record: microdilution, 10 mM sodium phosphate pH 7.2 + 20% MH broth, 24 h at 37 °C, OD600, triplicate. As for the experimental part:
as §1, §2

Experiment [7] concerns Biofilm EPS of P. aeruginosa DRPa 4007. As to the kind of experiment: Reduction of biofilm EPS components, fluorescent dyes and fluorescence microscopy. The class given is cell-based, Pseudomonas aeruginosa. The settings on record: 64 µM, 24 h incubation; FITC-ConA, Nile red, DAPI, SYPRO red. As for the experimental part: Figure 4 Eliminative action of peptides in biofilm extracellular polymeric substances (EPS). Biofilm EPS of P. aeruginosa DRPa 4007 in the absence or presence of peptides (64 µM) was stained by FITC-ConA for carbohydrates, Nile red for lipids, DAPI for nucleic acids, and SYPRO red for proteins and observed under fluorescence microscopy.
To investigate the eliminating ability of peptide, EPS components were analyzed using fluorescence microplate and microscopic analyses. After following the processes described in Section 3.7, the biofilm was washed with SP buffer and stained using four fluorescent dyes (DAPI for nucleic acids, Nile red for lipids, FITC-ConA for carbohydrates, and SYPRO red for proteins).

Experiment [8] has as its system P. aeruginosa ATCC 27853 biofilm. As to the kind of experiment: Inhibition of biofilm formation, crystal violet staining. The class given is cell-based, Pseudomonas aeruginosa. The settings on record: BHI + 2% sucrose, 24 h at 37 °C, crystal violet OD570. Here is the method:
(§3) Sucrose was added to enhance bacterial biofilm formation. Unattached bacteria were removed by washing with SP buffer and the remaining biofilm was fixed with methanol for 15 min. After air-drying for 30 min at room temperature, the plate was stained with 0.1% crystal violet (CV) for 5 min, followed by carefully washing with water and adding 95% ethanol to each well. The absorbance of the plate at 570 nm was measured using a Microplate Reader. The experiment was performed in triplicate and the percentage of biofilm inhibition was calculated as follows:Biofilm inhibition (%) = 100 − ((OD570 in sample treatment − OD570 in untreated bacteria)/(OD570 in untreated sample − OD570 in untreated bacteria) × 100) Sample treatment: adding peptides or antibiotics in bacterial suspensions; untreated bacteria: culture medium without bacteria and samples; untreated sample: bacterial suspension without samples.

In another experiment the test system is DRPa 4007 biofilm. The description is as above. The experiment is classed as cell-based. The settings on record: Pseudomonas aeruginosa, BHI + 2% sucrose, 24 h at 37 °C, crystal violet OD570, triplicate. As for the experimental part: as §3
For experiment [9], the system named is planktonic P. aeruginosa ATCC 27853. As to the kind of experiment: Growth inhibition of planktonic cells in BHI. The class given is cell-based, Pseudomonas aeruginosa. The settings on record: BHI broth, 24 h at 37 °C, OD600. Here is the method: (§4) To investigate the growth inhibition of peptides and antibiotics against planktonic P. aeruginosa cells, a microdilution assay was applied. […] After 24 h incubation at 37 °C with agitation, the growth inhibition was calculated by the absorbance measurement of bacterial turbidity at 600 nm using a Microplate Reader (SpectraMax M5, Molecular Devices, Sunnyvale, CA, USA). The assay was performed in triplicate. The percentage of […] was calculated as follows:Growth inhibition (%) = 100 − ((OD600 in sample treatment − OD600 in untreated bacteria)/(OD600 in untreated sample − OD600 in untreated bacteria) × 100) Sample treatment: adding peptides or antibiotics in bacterial suspensions; untreated bacteria: culture medium without bacteria and samples; untreated sample: bacterial suspension without samples.

The next experiment relates to planktonic DRPa 4007. Nature of the experiment: Growth inhibition of planktonic cells in BHI. The experiment is classed as cell-based, Pseudomonas aeruginosa. The settings on record: BHI broth, 24 h at 37 °C, OD600. Here is the method: as §4
In experiment [10] the test system is P. aeruginosa DRPa 4007 biofilm. Nature of the experiment: SEM analysis of biofilm on plastic coverslips. The experiment is classed as cell-based, Pseudomonas aeruginosa. The settings on record: peptides 64 µM, ciprofloxacin 256 µM, 24 h on 48 h biofilm. Here is the method: Figure 6 Image analysis of P. aeruginosa DRPa 4007 using scanning electron microscopy (SEM).
DRPa 4007 biofilms were formed on the plastic coverslips (12 mm dimension, SPL life science, Pocheon-si, Korea) for 48 h in BHI broth containing 2% (w/v) sucrose (1 × 10^8 CFU/mL) in a 24-well plate. […] The coverslips were rinsed using SP buffer and prefixed in 50 mM HEPES buffer (pH 8.0) containing 5% (v/v) glutaraldehyde for 2 h. After washing with SP buffer, they were dehydrated using the OTTIX shaper (Diapath S.p.A, Bergamo, Italy) and chemical-dried using hexamethyldisilazane. The coverslips coated with gold were observed under a field emission scanning electron microscopy (JSM-7100F, JEOL Ltd., Tokyo, Japan).

The mark [11] stands for this setting: Pseudomonas aeruginosa, ATCC27853.

Take `CC[C@H](C)[C@H](NC(=O)CN)C(=O)NCC(=O)N[C@@H](C)C(=O)N[C@H](C(=O)N[C@@H](CC(C)C)C(=O)N[C@@H](CCCCN)C(=O)N[C@H](C(=O)N[C@@H](CC(C)C)C(=O)N[C@H](C(=O)N[C@H](C(=O)NCC(=O)N[C@@H](CC(C)C)C(=O)N1CCC[C@H]1C(=O)N[C@@H](C)C(=O)N[C@@H](CC(C)C)C(=O)N[C@H](C(=O)N[C@@H](CO)C(=O)N[C@@H](Cc1c[nH]c2ccccc12)C(=O)N[C@H](C(=O)N[C@@H](CCCCN)C(=O)N[C@@H](CCCNC(=N)N)C(=O)N[C@@H](CCCCN)C(=O)N[C@@H](CCCNC(=N)N)C(=O)N[C@@H](CCC(N)=O)C(=O)N[C@@H](CCC(N)=O)C(N)=O)[C@@H](C)CC)[C@@H](C)CC)[C@@H](C)O)[C@@H](C)O)C(C)C)C(C)C` [Melittin]: the MIC in [1] stood at 2 µM; in [2], 4 µM; in [3], 2 µM; in experiment [4], 4 µM; in [5], 4 µM; in experiment [6], 4 µM. Besides, the “removal of EPS components (carbohydrates, lipids, DNA, proteins)” value in experiment [7] is reported as “did not remove carbohydrates”.
Consider RRIIRRIWRW-NH2 [RIW-10], for which the MIC is given as 16 µM in experiment [2] and 8 µM in experiment [6].
For `Cc1onc(-c2ccccc2)c1C(=O)N[C@@H]1C(=O)N2[C@@H]1SC(C)(C)[C@@H]2C(=O)O` [oxacillin], the “inhibition of biofilm formation” value in experiment [8] is “dose-dependent manner”. Moreover, in the experiment with DRPa 4007 biofilm, the inhibition at 64 µM amounted to 3.4%.
On to WIRRIWRRIR-NH2 [WIR-10], for which the MIC in experiment [2] came out at 4 µM; in experiment [6], 2 µM.
Turning to WIKKIWKKIIKEIK-NH2 [WIKE-14], the MIC in experiment [2] and in experiment [6] was 8 µM in each case.
Turning to `NC[C@H]1O[C@H](O[C@H]2[C@H](O)[C@@H](O[C@H]3O[C@H](CO)[C@@H](O)[C@H](N)[C@H]3O)[C@H](N)C[C@@H]2N)[C@H](N)C[C@@H]1O` [Tobramycin], the MIC in [3] (setting [11]) was determined as 0.25 µM.
As to RRIWRRWIRI-NH2 [RWI-10], the MIC in [2] came to 4 µM; in [6], 8 µM.
On the same counts, the results for KKIIKKIIKKIWKW-NH2 [KIW-14] are 2 µM and 2 µM.
On the same counts, the results for KKIWKKWIKI-NH2 [KWI-10] are 8 µM and 8 µM.
In the same order, the values of KKIIKKIWKW-NH2 [KIW-10] are 16 µM and 16 µM.
Take WIKKIWKKIK-NH2 [WIK-10]: the MIC in experiment [2] and in [6] was 8 µM in each case.
Take KKIWKKWIKKIIKI-NH2 [KWI-14]: the MIC in experiment [2] turned out to be 2 µM; in [6], 1 µM.
For the compound WIKKIWKKIIKKIK-NH2 [WIK-14], the MIC in [2] is listed as 2 µM; in experiment [6], 1 µM.
Take `CC(C)(O/N=C(\C(=O)N[C@@H]1C(=O)N2C(C(=O)[O-])=C(C[n+]3ccccc3)CS[C@H]12)c1csc(N)n1)C(=O)O` [Ceftazidime]: the MIC in experiment [3] (setting [11]) was 1 µM. The “growth inhibition of planktonic cells” value in [9] is recorded as “at very low concentrations”. Moreover, in the experiment with planktonic DRPa 4007, the “antibacterial activity against planktonic cells” value is recorded as “remarkably inhibited”.
For `O=C(O)c1cn(C2CC2)c2cc(N3CCNCC3)c(F)cc2c1=O` [Ciprofloxacin], the MIC in [1] (Pseudomonas aeruginosa) is above 256 µM; in experiment [2] (Pseudomonas aeruginosa), 64 µM; in experiment [3] (setting [11]), 1 µM; in experiment [4] (Pseudomonas aeruginosa) it was above 256 µM; in [5] (Pseudomonas aeruginosa), above 256 µM; in experiment [6] (Pseudomonas aeruginosa), above 256 µM. Moreover, the “inhibition of biofilm formation” value in [8] is “dose-dependent manner”. The “growth inhibition of planktonic cells” value in experiment [9] is reported as “at very low concentrations”. Besides, the “antibacterial activity against planktonic cells” value in the experiment with planktonic DRPa 4007 is “remarkably inhibited”. Further, the inhibition at 64 µM with DRPa 4007 biofilm is 2.3%. Further, in experiment [10], the “biofilm and bacteria on coverslip under SEM” value was “massive volume”.

A word on the inhibition: it is the drop in the measured response relative to a control, in per cent.
